# Data from US10450318B2, “CXCR4 receptor antagonists” (BRISTOL-MYERS SQUIBB COMPANY, priority 2015, dated 2019).
# Target: T1, CXCR4 receptors (Homo sapiens, UniProt P61073)
# T1 construct: expressing endogenous CXCR4 receptors; endogenous in cells; host or cells: CCRF-CEM (human T lymphoblast cells)
# Assay: CXCR4-CEM calcium flux assay, antagonist mode (inhibition of SDF-1α-induced calcium flux)
# Assay type: cell-based
# Details: inhibition of calcium flux induced by 4 nM SDF-1α in CCRF-CEM cells
# In short: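 CCRF-CEM cells were preincubated with compound (0.5% DMSO) for 25 min at room temperature, then stimulated with 4 nM SDF-1α. The resulting calcium flux was recorded by FDSS for 90 sec. Percent inhibition was calculated against an internal control compound, and background-corrected EC50 values were derived.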
# T1 sequence (P61073 whole entry): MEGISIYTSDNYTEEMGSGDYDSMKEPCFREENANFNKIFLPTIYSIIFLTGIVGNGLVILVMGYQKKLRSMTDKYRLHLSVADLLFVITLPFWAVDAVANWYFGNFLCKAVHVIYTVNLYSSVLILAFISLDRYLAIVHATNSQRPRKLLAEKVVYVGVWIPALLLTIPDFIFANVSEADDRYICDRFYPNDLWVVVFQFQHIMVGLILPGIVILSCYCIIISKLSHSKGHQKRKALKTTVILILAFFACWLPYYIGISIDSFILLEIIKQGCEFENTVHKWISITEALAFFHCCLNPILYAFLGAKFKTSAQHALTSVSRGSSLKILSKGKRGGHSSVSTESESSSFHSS
row,Compound,IC50 [µM]
1,"CN(Cc1nc2ccnc(N3CCNCC3)n2c1CO)[C@H]1CCOc2cccnc21 [Example 71, (S)-(2-(((3,4-Dihydro-2H-pyrano[3,2-b]pyridin-4-yl)(methyl)amino)methyl)-5-(piperazin-1-yl)imidazo[1,2-c]pyrimidin-3-yl)methanol]",0.0027
2,"CN(Cc1cn2c(N3CCNCC3)nc(Cl)cc2n1)[C@H]1CCCc2cccnc21 [Example 72, (S)—N-((7-Chloro-5-(piperazin-1-yl)imidazo[1,2-c]pyrimidin-2-yl)methyl)-N-methyl-5,6,7,8-tetrahydroquinolin-8-amine]",0.33
3,"C[C@@H]1CN(c2nccc3nc(CN(C)[C@H]4CCCc5cccnc54)cn23)C[C@H](C)N1 [Example 73, (S)—N-((5-((3S,5R)-3,5-Dimethylpiperazin-1-yl)imidazo[1,2-c]pyrimidin-2-yl)methyl)-N-methyl-5,6,7,8-tetrahydroquinolin-8-amine]",0.12
4,"CN(Cc1cn2c(N3CCNC[C@H]3CO)nccc2n1)[C@H]1CCCc2cccnc21 [Example 77, ((S)-1-(2-((methyl((S)-5,6,7,8-tetrahydroquinolin-8-yl)amino)methyl)imidazo[1,2-c]pyrimidin-5-yl)piperazin-2-yl)methanol]",0.25
5,"CN(Cc1cn2c(N3CC4CNCC4C3)nccc2n1)[C@H]1CCCc2cccnc21 (stereo partly drawn) [Example 80, (8S)-N-((5-(hexahydropyrrolo[3,4-c]pyrrol-2(1H)-yl)imidazo[1,2-c]pyrimidin-2-yl)methyl)-N-methyl-5,6,7,8-tetrahydroquinolin-8-amine]",0.023
6,"CN1CC2CN(c3nccc4nc(CN(C)[C@H]5CCCc6cccnc65)cn34)CC2C1 (stereo partly drawn) [Example 81, (8S)-N-methyl-N-((5-(5-methylhexahydropyrrolo[3,4-c]pyrrol-2(1H)-yl)imidazo[1,2-c]pyrimidin-2-yl)methyl)-5,6,7,8-tetrahydroquinolin-8-amine]",0.032
7,"CN(Cc1cn2c(N3CC4CNC4C3)nccc2n1)[C@H]1CCCc2cccnc21 (stereo partly drawn) [Example 88, (8S)-N-((5-(3,6-diazabicyclo[3.2.0]heptan-3-yl)imidazo[1,2-c]pyrimidin-2-yl)methyl)-N-methyl-5,6,7,8-tetrahydroquinolin-8-amine]",0.22
8,"CN(Cc1cn2c(N3CC4CNC4C3)nccc2n1)[C@H]1CCCc2cccnc21 (stereo partly drawn) [Example 89, (8S)-N-((5-(3,6-diazabicyclo[3.2.0]heptan-3-yl)imidazo[1,2-c]pyrimidin-2-yl)methyl)-N-methyl-5,6,7,8-tetrahydroquinolin-8-amine]",0.28
9,"CN(Cc1cn2c(N3CC4CCNC4C3)nccc2n1)[C@H]1CCCc2cccnc21 (stereo partly drawn) [Example 93, (8S)-N-((5-(hexahydropyrrolo[3,4-b]pyrrol-5(1H)-yl)imidazo[1,2-c]pyrimidin-2-yl)methyl)-N-methyl-5,6,7,8-tetrahydroquinolin-8-amine]",0.027
10,"CN(Cc1cn2c(N3CC4CCNC4C3)nccc2n1)[C@H]1CCCc2cccnc21 (stereo partly drawn) [Example 94, (8S)-N-((5-(hexahydropyrrolo[3,4-b]pyrrol-5(1H)-yl)imidazo[1,2-c]pyrimidin-2-yl)methyl)-N-methyl-5,6,7,8-tetrahydroquinolin-8-amine]",0.065
11,"C[C@@H]1CN(c2nccc3nc(CN(C)[C@H]4CCCc5cccnc54)cn23)C[C@H](C)N1C [Example 97, (S)—N-Methyl-N-((5-((3S,5R)-3,4,5-trimethylpiperazin-1-yl)imidazo[1,2-c]pyrimidin-2-yl)methyl)-5,6,7,8-tetrahydroquinolin-8-amine]",0.48
12,"CN1CCC2CN(c3nccc4nc(CN(C)[C@H]5CCCc6cccnc65)cn34)CC21 (stereo partly drawn) [Example 100, (8S)-N-methyl-N-((5-(1-methylhexahydropyrrolo[3,4-b]pyrrol-5(1H)-yl)imidazo[1,2-c]pyrimidin-2-yl)methyl)-5,6,7,8-tetrahydroquinolin-8-amine]",0.21
13,"CN1CCCC2CN(c3nccc4nc(CN(C)[C@H]5CCCc6cccnc65)cn34)CC21 (stereo partly drawn) [Example 102, (8S)-N-methyl-N-((5-(1-methyloctahydro-6H-pyrrolo[3,4-b]pyridin-6-yl)imidazo[1,2-c]pyrimidin-2-yl)methyl)-5,6,7,8-tetrahydroquinolin-8-amine]",0.21
14,"CN1CCCC2CN(c3nccc4nc(CN(C)[C@H]5CCCc6cccnc65)cn34)CC21 (stereo partly drawn) [Example 103, (8S)-N-methyl-N-((5-(1-methyloctahydro-6H-pyrrolo[3,4-b]pyridin-6-yl)imidazo[1,2-c]pyrimidin-2-yl)methyl)-5,6,7,8-tetrahydroquinolin-8-amine]",0.26
15,"COc1cc2nc(CN(C)[C@H]3CCCc4cccnc43)cn2c(N2CCNCC2)n1 [Example 104, (S)—N-((7-methoxy-5-(piperazin-1-yl)imidazo[1,2-c]pyrimidin-2-yl)methyl)-N-methyl-5,6,7,8-tetrahydroquinolin-8-amine]",0.19
16,"COc1cc2nc(CN(C)[C@H]3CCCc4cccnc43)cn2c(N2CCN(C)CC2)n1 [Example 105, (S)—N-((7-Methoxy-5-(4-methylpiperazin-1-yl)imidazo[1,2-c]pyrimidin-2-yl)methyl)-N-methyl-5,6,7,8-tetrahydroquinolin-8-amine]",0.1
17,"COc1nc(N2CCN(C)CC2)n2cc(CN(C)[C@H]3CCCc4cccnc43)nc2c1CO [Example 106, (S)-(7-Methoxy-2-((methyl(5,6,7,8-tetrahydroquinolin-8-yl)amino)methyl)-5-(4-methylpiperazin-1-yl)imidazo[1,2-c]pyrimidin-8-yl)methanol]",0.37
18,"NCCCCN(Cc1cn2c(O)nccc2n1)[C@H]1CCCc2cccnc21 [Example 107, (S)-2-(((4-Aminobutyl)(5,6,7,8-tetrahydroquinolin-8-yl)amino)methyl)imidazo[1,2-c]pyrimidin-5-ol]",0.029
19,"CN(Cc1nc2ccnc(N3CCN4CCC[C@H]4C3)n2c1CO)[C@H]1CCCc2cccnc21 [Example 108, (5-((S)-Hexahydropyrrolo[1,2-a]pyrazin-2(1H)-yl)-2-((methyl((S)-5,6,7,8-tetrahydroquinolin-8-yl)amino)methyl)imidazo[1,2-c]pyrimidin-3-yl)methanol]",0.0021

# Second part, the compound after the results:
row,IC50 [µM],Compound
1,0.079,"CN(Cc1cn2c(N3CCC(N)C3)nccc2n1)[C@H]1CCCc2cccnc21 (stereo partly drawn) [Example 74, (8S)-N-((5-(3-aminopyrrolidin-1-yl)imidazo[1,2-c]pyrimidin-2-yl)methyl)-N-methyl-5,6,7,8-tetrahydroquinolin-8-amine]"
2,0.0064,"CN(Cc1cn2c(N3CCN4CCC[C@H]4C3)nccc2n1)[C@H]1CCCc2cccnc21 [Example 76, (S)-N-((5-((S)-hexahydropyrrolo[1,2-a]pyrazin-2(1H)-yl)imidazo[1,2-c]pyrimidin-2-yl)methyl)-N-methyl-5,6,7,8-tetrahydroquinolin-8-amine]"
3,3.78,"CN(Cc1cn2c(N3CCn4cnnc4C3)nccc2n1)[C@H]1CCCc2cccnc21 [Example 82, (S)-N-((5-(5,6-dihydro-[1,2,4]triazolo[4,3-a]pyrazin-7(8H)-yl)imidazo[1,2-c]pyrimidin-2-yl)methyl)-N-methyl-5,6,7,8-tetrahydroquinolin-8-amine]"
4,0.15,"CN(Cc1cn2c(N3CCn4ccnc4C3)nccc2n1)[C@H]1CCCc2cccnc21 [Example 83, (S)-N-((5-(5,6-dihydroimidazo[1,2-a]pyrazin-7(8H)-yl)imidazo[1,2-c]pyrimidin-2-yl)methyl)-N-methyl-5,6,7,8-tetrahydroquinolin-8-amine]"
5,> 16,"CN(Cc1cn2c(N3CCN(CC(F)(F)F)CC3)nccc2n1)[C@H]1CCCc2cccnc21 [Example 84, (S)-N-methyl-N-((5-(4-(2,2,2-trifluoroethyl)piperazin-1-yl)imidazo[1,2-c]pyrimidin-2-yl)methyl)-5,6,7,8-tetrahydroquinolin-8-amine]"
6,0.0017,"CN(Cc1cn2c(N3CCN[C@@H](CO)C3)nccc2n1)[C@H]1CCCc2cccnc21 [Example 85, ((R)-4-(2-((methyl((S)-5,6,7,8-tetrahydroquinolin-8-yl)amino)methyl)imidazo[1,2-c]pyrimidin-5-yl)piperazin-2-yl)methanol]"
7,0.0017,"CN(Cc1cn2c(N3CCN[C@H](CO)C3)nccc2n1)[C@H]1CCCc2cccnc21 [Example 86, ((S)-4-(2-((methyl((S)-5,6,7,8-tetrahydroquinolin-8-yl)amino)methyl)imidazo[1,2-c]pyrimidin-5-yl)piperazin-2-yl)methanol]"
8,0.2,"CN(Cc1cn2c(N3CCN4C[C@@H](F)C[C@H]4C3)nccc2n1)[C@H]1CCCc2cccnc21 [Example 87, (S)-N-((5-((7S,8aS)-7-fluorohexahydropyrrolo[1,2-a]pyrazin-2(1H)-yl)imidazo[1,2-c]pyrimidin-2-yl)methyl)-N-methyl-5,6,7,8-tetrahydroquinolin-8-amine]"
9,0.0025,"CN(Cc1cn2c(N3CCN4CCCCC4C3)nccc2n1)[C@H]1CCCc2cccnc21 (stereo partly drawn) [Example 90, (8S)-N-methyl-N-((5-(octahydro-2H-pyrido[1,2-a]pyrazin-2-yl)imidazo[1,2-c]pyrimidin-2-yl)methyl)-5,6,7,8-tetrahydroquinolin-8-amine]"
10,0.0019,"CN1CCN(c2nccc3nc(CN(C)[C@H]4CCCc5cccnc54)cn23)C[C@@H]1CO [Example 98, ((R)-1-methyl-4-(2-((methyl((S)-5,6,7,8-tetrahydroquinolin-8-yl)amino)methyl)imidazo[1,2-c]pyrimidin-5-yl)piperazin-2-yl)methanol]"
11,0.027,"CN1CCN(c2nccc3nc(CN(C)[C@H]4CCCc5cccnc54)cn23)C[C@H]1CO [Example 99, ((S)-1-methyl-4-(2-((methyl((S)-5,6,7,8-tetrahydroquinolin-8-yl)amino)methyl)imidazo[1,2-c]pyrimidin-5-yl)piperazin-2-yl)methanol]"
12,0.22,"CN1CCC2CN(c3nccc4nc(CN(C)[C@H]5CCCc6cccnc65)cn34)CC21 (stereo partly drawn) [Example 101, (8S)-N-methyl-N-((5-(1-methylhexahydropyrrolo[3,4-b]pyrrol-5(1H)-yl)imidazo[1,2-c]pyrimidin-2-yl)methyl)-5,6,7,8-tetrahydroquinolin-8-amine]"
